Results from publication PMC7419507, “In vitro Cas9-assisted editing of modular polyketide synthase genes to produce desired natural product derivatives” (Nature Communications, 2020).
“And” between values parts separate entries of the source, which are not always exact repeats. Equal entries are not always repeated.

How the values were obtained:
[1] = test system: malignant pleural mesothelioma MESO-1 cells; assay: Cytotoxicity assay (CellTiter-Glo, 72 h), MESO-1; type: cell-based; conditions: raw replicate data
Method in brief: (§1)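 1000 cells/well; 4 h settle, then 2-fold serial dilutions (0.5% DMSO final), 72 h, 37 °C/5% CO2. Read-out: CellTiter-Glo luminescence. Media: RPMI1640 + 10% FBS (Jurkat, MESO-1; Jurkat also Glutamax), DMEM + 10% FBS (SKOV-3).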

[2] = Cytotoxicity assay (CellTiter-Glo, 72 h), MESO-1; type: cell-based; conditions: human, MESO-1 malignant pleural mesothelioma cells, raw replicate data, read-out: MESO1 viability (%)
Method in brief: as §1

[3] = Cytotoxicity assay (CellTiter-Glo, 72 h), SKOV-3; type: cell-based, human; conditions: human, raw replicate data, read-out: SKOV3 viability (%)
Method in brief: as §1

[4] = test system: human ovarian adenocarcinoma SKOV-3 cells; assay: Cytotoxicity assay (CellTiter-Glo, 72 h), SKOV-3; type: cell-based; conditions: raw replicate data
Method in brief: as §1

FKBP12 and mTOR = biological target: T1, FKBP12 and mTOR (Homo sapiens, UniProt P42345+P62942); assay: Fluoppi analysis: induction of FKBP12-mTOR complex formation in transfected HeLa cells; type: cell-based; conditions: for Foci intensity: raw data, one replicate per line
T1 construct: host or cells: HeLa cells
T1 sequence (P42345 2025-2114 limits assumed): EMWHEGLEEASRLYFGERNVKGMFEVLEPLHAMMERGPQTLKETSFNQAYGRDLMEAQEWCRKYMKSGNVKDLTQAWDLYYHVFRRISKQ
T1 sequence (P62942 whole entry): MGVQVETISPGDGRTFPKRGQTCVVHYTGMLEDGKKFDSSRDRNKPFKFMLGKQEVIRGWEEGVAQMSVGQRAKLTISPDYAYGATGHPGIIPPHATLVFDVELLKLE
Method in brief: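 HeLa cells co-transfected with phAG-mTOR and pAsh-FKBP12, seeded 3000 cells/well, then compound-treated 1 h after 24 h at 37 °C. Fixed, Hoechst-stained, imaged by high-content microscopy; foci fluorescence normalized to total cell fluorescence, EC50 computed.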

[5] = test system: Jurkat, SKOV-3 and MESO-1 cells; assay: Cytotoxicity assay, statements for all tested cell lines together; type: cell-based; conditions: Jurkat, SKOV-3 and MESO-1 cells, 72 h
Method in brief: as §1

## CO[C@@H]1/C=C/C=C/[C@@H](C)C[C@@H](C)C(=O)C[C@H](O)/C(C)=C/[C@@H](C)C(=O)C[C@@H]([C@H](C)C[C@@H]2CC[C@@H](O)[C@H](OC)C2)OC(=O)[C@@H]2CCCCN2C(=O)C(=O)[C@]2(O)O[C@@H](CC[C@H]2C)C1 [Compound 9]
[1]; conc 9.53674e-5 uM
  MESO1 viability (%): 98.3% and 100.4%
[1]; conc 0.000190735 uM
  MESO1 viability (%): 90.7% and 98.1%
[1]; conc 0.00038147 uM
  MESO1 viability (%): 97.4% and 97.9%
[1]; conc 0.000762939 uM
  MESO1 viability (%): 94.8% and 94.3%
[1]; conc 0.00152588 uM
  MESO1 viability (%): 99.1% and 102.8%
[1]; conc 0.00305176 uM
  MESO1 viability (%): 92.2% and 94.8%
[1]; conc 0.00610352 uM
  MESO1 viability (%): 96.7% and 92.3%
[1]; conc 0.012207 uM
  MESO1 viability (%): 91.8%
[1]; conc 0.0244141 uM
  MESO1 viability (%): 99.0% and 94.1%
[1]; conc 0.0488281 uM
  MESO1 viability (%): 84.2% and 90.6%
[1]; conc 0.0976562 uM
  MESO1 viability (%): 83.8% and 83.9%
[1]; conc 0.195312 uM
  MESO1 viability (%): 74.7% and 76.1%
[1]; conc 0.390625 uM
  MESO1 viability (%): 72.2% and 72.1%
[1]; conc 0.78125 uM
  MESO1 viability (%): 64.8% and 71.9%
[1]; conc 1.5625 uM
  MESO1 viability (%): 69.3% and 70.3%
[1]; conc 3.125 uM
  MESO1 viability (%): 69.9%
[1]; conc 6.25 uM
  MESO1 viability (%): 70.9% and 68.1%
[1]; conc 12.5 uM
  MESO1 viability (%): 63.1% and 61.3%
[1]; conc 25 uM
  MESO1 viability (%): 65.5% and 63.8%
[1]; conc 50 uM
  MESO1 viability (%): 61.4% and 51.1%
[2]; conc 9.53674e-5 uM
  viability at 72 h, 9.53674e-05 uM: 101%
[2]; conc 0.000190735 uM
  viability at 72 h, 0.000190735 uM: 93.5%
[2]; conc 0.00038147 uM
  viability at 72 h, 0.00038147 uM: 95%
[2]; conc 0.000762939 uM
  viability at 72 h, 0.000762939 uM: 93.4%
[2]; conc 0.00152588 uM
  viability at 72 h, 0.00152588 uM: 100%
[2]; conc 0.00305176 uM
  viability at 72 h, 0.00305176 uM: 92.4%
[2]; conc 0.00610352 uM
  viability at 72 h, 0.00610352 uM: 95.6%
[2]; conc 0.012207 uM
  viability at 72 h, 0.012207 uM: 89.8%
[2]; conc 0.0244141 uM
  viability at 72 h, 0.0244141 uM: 91%
[2]; conc 0.0488281 uM
  viability at 72 h, 0.0488281 uM: 82.4%
[2]; conc 0.0976562 uM
  viability at 72 h, 0.0976562 uM: 85.7%
[2]; conc 0.195312 uM
  viability at 72 h, 0.195312 uM: 74.8%
[2]; conc 0.390625 uM
  viability at 72 h, 0.390625 uM: 75.8%
[2]; conc 0.78125 uM
  viability at 72 h, 0.78125 uM: 66.3%
[2]; conc 1.5625 uM
  viability at 72 h, 1.5625 uM: 71.8%
[2]; conc 3.125 uM
  viability at 72 h, 3.125 uM: 65.2%
[2]; conc 6.25 uM
  viability at 72 h, 6.25 uM: 69.4%
[2]; conc 12.5 uM
  viability at 72 h, 12.5 uM: 63.3%
[2]; conc 25 uM
  viability at 72 h, 25 uM: 63.9%
[2]; conc 50 uM
  viability at 72 h, 50 uM: 53%
[3]; SKOV-3 cells (ovarian adenocarcinoma), conc 9.53674e-5 uM
  viability at 72 h, 9.53674e-05 uM: 103%
[3]; SKOV-3 cells (ovarian adenocarcinoma), conc 0.000190735 uM
  viability at 72 h, 0.000190735 uM: 105%
[3]; SKOV-3 cells (ovarian adenocarcinoma), conc 0.00038147 uM
  viability at 72 h, 0.00038147 uM: 97.1%
[3]; SKOV-3 cells (ovarian adenocarcinoma), conc 0.000762939 uM
  viability at 72 h, 0.000762939 uM: 101%
[3]; SKOV-3 cells (ovarian adenocarcinoma), conc 0.00152588 uM
  viability at 72 h, 0.00152588 uM: 102%
[3]; SKOV-3 cells (ovarian adenocarcinoma), conc 0.00305176 uM
  viability at 72 h, 0.00305176 uM: 97.4%
[3]; SKOV-3 cells (ovarian adenocarcinoma), conc 0.00610352 uM
  viability at 72 h, 0.00610352 uM: 105%
[3]; SKOV-3 cells (ovarian adenocarcinoma), conc 0.012207 uM
  viability at 72 h, 0.012207 uM: 99.1%
[3]; SKOV-3 cells (ovarian adenocarcinoma), conc 0.0244141 uM
  viability at 72 h, 0.0244141 uM: 97.2%
[3]; SKOV-3 cells (ovarian adenocarcinoma), conc 0.0488281 uM
  viability at 72 h, 0.0488281 uM: 90.5%
[3]; SKOV-3 cells (ovarian adenocarcinoma), conc 0.0976562 uM
  viability at 72 h, 0.0976562 uM: 92.1%
[3]; SKOV-3 cells (ovarian adenocarcinoma), conc 0.195312 uM
  viability at 72 h, 0.195312 uM: 75%
[3]; SKOV-3 cells (ovarian adenocarcinoma), conc 0.390625 uM
  viability at 72 h, 0.390625 uM: 80.5%
[3]; SKOV-3 cells (ovarian adenocarcinoma), conc 12.5 uM
  viability at 72 h, 12.5 uM: 60.9%
[3]; SKOV-3 cells (ovarian adenocarcinoma), conc 25 uM
  viability at 72 h, 25 uM: 70.4%
[3]; SKOV-3 cells (ovarian adenocarcinoma), conc 50 uM
  viability at 72 h, 50 uM: 52.8%
[3]; SKOV-3 ovarian adenocarcinoma cells, conc 0.78125 uM
  viability at 72 h, 0.78125 uM: 70.1%
[3]; SKOV-3 ovarian adenocarcinoma cells, conc 1.5625 uM
  viability at 72 h, 1.5625 uM: 73.8%
[3]; SKOV-3 ovarian adenocarcinoma cells, conc 3.125 uM
  viability at 72 h, 3.125 uM: 65.5%
[3]; SKOV-3 ovarian adenocarcinoma cells, conc 6.25 uM
  viability at 72 h, 6.25 uM: 70.2%
[4]; conc 9.53674e-5 uM
  SKOV3 viability (%): 105.9% and 100.3%
[4]; conc 0.000190735 uM
  SKOV3 viability (%): 101.8% and 104.0%
[4]; conc 0.00038147 uM
  SKOV3 viability (%): 103.8%
[4]; conc 0.000762939 uM
  SKOV3 viability (%): 99.7% and 104.2%
[4]; conc 0.00152588 uM
  SKOV3 viability (%): 108.5% and 105.8%
[4]; conc 0.00305176 uM
  SKOV3 viability (%): 98.1%
[4]; conc 0.00610352 uM
  SKOV3 viability (%): 101.6% and 106.7%
[4]; conc 0.012207 uM
  SKOV3 viability (%): 93.5% and 95.1%
[4]; conc 0.0244141 uM
  SKOV3 viability (%): 95.8% and 102.2%
[4]; conc 0.0488281 uM
  SKOV3 viability (%): 93.6% and 92.4%
[4]; conc 0.0976562 uM
  SKOV3 viability (%): 93.2% and 87.5%
[4]; conc 0.195312 uM
  SKOV3 viability (%): 79.8% and 81.0%
[4]; conc 0.390625 uM
  SKOV3 viability (%): 82.0% and 78.5%
[4]; conc 0.78125 uM
  SKOV3 viability (%): 67.6% and 71.1%
[4]; conc 1.5625 uM
  SKOV3 viability (%): 76.5% and 72.9%
[4]; conc 3.125 uM
  SKOV3 viability (%): 73.0% and 75.2%
[4]; conc 6.25 uM
  SKOV3 viability (%): 70.8% and 73.4%
[4]; conc 12.5 uM
  SKOV3 viability (%): 62.7% and 63.5%
[4]; conc 25 uM
  SKOV3 viability (%): 72.9%
[4]; conc 50 uM
  SKOV3 viability (%): 57.2% and 56.0%
FKBP12 and mTOR; Fluoppi
  PPI-inducing (binding enhancing) activity between FKBP12 and mTOR compared with rapamycin (1), in words: relatively weaker activities
FKBP12 and mTOR; Fluoppi, HeLa cells, 1 h treatment, three independent biological replicates, read-out: EC50, induction of the formation of FKBP-mTOR complex
  EC50: 34 nM
FKBP12 and mTOR; conc 9.53674e-5 uM
  Foci intensity: 0.01796 and 0.01734 and 0.0265
FKBP12 and mTOR; conc 0.000190735 uM
  Foci intensity: 0.007038 and 0.008763 and 0.03506
FKBP12 and mTOR; conc 0.00038147 uM
  Foci intensity: 0.01287 and 0.02231 and 0.02044
FKBP12 and mTOR; conc 0.000762939 uM
  Foci intensity: 0.01526 and 0.03513 and 0.01148
FKBP12 and mTOR; conc 0.00152588 uM
  Foci intensity: 0.01977 and 0.009687 and 0.01946
FKBP12 and mTOR; conc 0.00305176 uM
  Foci intensity: 0.01393 and 0.02436 and 0.01751
FKBP12 and mTOR; conc 0.00610352 uM
  Foci intensity: 0.02196 and 0.02086 and 0.01607
FKBP12 and mTOR; conc 0.012207 uM
  Foci intensity: 0.03665 and 0.02818 and 0.0403
FKBP12 and mTOR; conc 0.0244141 uM
  Foci intensity: 0.1568 and 0.166 and 0.1355
FKBP12 and mTOR; conc 0.0488281 uM
  Foci intensity: 0.2266 and 0.245 and 0.2523
FKBP12 and mTOR; conc 0.0976562 uM
  Foci intensity: 0.282 and 0.2404 and 0.219
FKBP12 and mTOR; conc 0.195312 uM
  Foci intensity: 0.2721 and 0.2692 and 0.2013
FKBP12 and mTOR; conc 0.390625 uM
  Foci intensity: 0.3169 and 0.313 and 0.309
FKBP12 and mTOR; conc 0.78125 uM
  Foci intensity: 0.3134 and 0.2906 and 0.2987
FKBP12 and mTOR; conc 1.5625 uM
  Foci intensity: 0.3134 and 0.3737 and 0.3166
FKBP12 and mTOR; conc 3.125 uM
  Foci intensity: 0.3491 and 0.3731 and 0.3792
FKBP12 and mTOR; conc 6.25 uM
  Foci intensity: 0.279 and 0.3226 and 0.3138
FKBP12 and mTOR; conc 12.5 uM
  Foci intensity: 0.3645 and 0.3352 and 0.3161
FKBP12 and mTOR; conc 25 uM
  Foci intensity: 0.2867 and 0.3845 and 0.2898
FKBP12 and mTOR; conc 50 uM
  Foci intensity: 0.3496 and 0.3134 and 0.3176
[5]
  Effect on cell viability, in words: slightly suppressed the cell viabilities
